Data: patent US10086039B2, “Lamin A, an activator of longevity/anti-aging SIRT1 protein” (THE UNIVERSITY OF HONG KONG, priority 2012, dated 2018)

Columns and labels:
p16ink4a = p16ink4a level in MEFs by Western blotting; assay type: cell-based, mouse; conditions: Zmpste24−/− MEFs
Method: (§1) Western blotting was performed as described previously (Liu et al., 2005). Relative band intensity was measured by IMAGE J® and normalized to corresponding wild-type or untreated controls as indicated.
As resveratrol enhances SIRT1 deacetylase activity by increasing its binding to lamin A, this Example examines the effects of resveratrol treatment on the early senescence in Zmpste24^−/− MEFs. […] As SIRT1 is more highly expressed in stem cells than in somatic differentiated cells and it is critical for maintaining stem cell self-renewal and function (Han et al., 2008; Lee et al., 2011; Saunders et al., 2010), we then tested effects of resveratrol on BMSCs.

SIRT1 = target: T1, SIRT1 (Homo sapiens, UniProt Q96EB6); assay: SIRT1 deacetylation assay on native full-length acetyl FLAG-p53 (Western blotting, anti-acetyl lysine); assay type: biochemical; design: purchased Biomol (Hamburg, Germany)
T1 sequence (Q96EB6 1-747): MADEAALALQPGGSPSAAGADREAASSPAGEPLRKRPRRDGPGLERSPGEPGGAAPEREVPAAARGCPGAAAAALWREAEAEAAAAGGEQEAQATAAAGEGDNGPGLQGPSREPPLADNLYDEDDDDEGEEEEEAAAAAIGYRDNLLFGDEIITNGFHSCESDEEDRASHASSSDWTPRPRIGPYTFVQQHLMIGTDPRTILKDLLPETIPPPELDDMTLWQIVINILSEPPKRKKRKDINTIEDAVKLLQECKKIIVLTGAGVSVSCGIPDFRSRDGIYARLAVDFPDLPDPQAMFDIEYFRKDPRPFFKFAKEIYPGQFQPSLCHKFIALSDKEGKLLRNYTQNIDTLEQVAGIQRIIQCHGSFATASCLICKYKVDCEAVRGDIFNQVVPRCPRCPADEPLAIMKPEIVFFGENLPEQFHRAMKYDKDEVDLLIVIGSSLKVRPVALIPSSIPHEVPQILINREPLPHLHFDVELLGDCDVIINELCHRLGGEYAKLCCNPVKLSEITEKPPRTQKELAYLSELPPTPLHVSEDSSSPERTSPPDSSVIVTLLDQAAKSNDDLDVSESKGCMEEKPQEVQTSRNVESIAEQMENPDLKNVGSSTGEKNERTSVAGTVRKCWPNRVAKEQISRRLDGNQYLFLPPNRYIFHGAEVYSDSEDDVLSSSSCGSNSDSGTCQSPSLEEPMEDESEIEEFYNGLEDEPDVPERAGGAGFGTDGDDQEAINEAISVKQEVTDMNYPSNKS
Method: SIRT1 deacetylation assay on fluorophore-conjugated synthetic p53 peptide was performed with SIRT1 Fluorimetric Drug Discovery Kit (Biomol, Hamburg, Germany) according to the manufactory's instruction. Cells were fractionated as described above except that protease inhibitors were NOT included and the nuclear matrix fraction was suspended into the assay buffer provided by the supplier. Different cell fractions or recombinant human lamin A (rhLamin A, Diatheva, Italy) were added in the reaction mix of SIRT1 Fluorimetric Drug Discovery Kit, incubated for 20 min at 37° C., and then the reaction was stopped and fluorescent signal was detected. SIRT1 deacetylase activity on native target was assayed using SIRT1 assay Kit from Sigma (USA). Constructs encoding FLAG-p53 and HA-p300 were co-transfected into HEK293 cells; FLAG-p53 was immunoprecipitated by anti-FLAG M2 Agarose (Sigma) followed by elution with FLAG peptide (Sigma). Purified acetyl FLAG-p53 was incubated with recombinant human SIRT1 (rhSIRT1) and NAD+ for 30 min at 37° C., in the presence or absence of rhLamin A or resveratrol. The acetylation level of FLAG-p53 was determined by Western blotting with pan anti acetyl lysine antibodies.
To further test the effect of rhLamin A on the native target of SIRT1, acetyl p53 was purified by anti-FLAG immunoprecipitation in HEK293 cells ectopically expressing FLAG-p53 and p300, and SIRT1 deacetylation assay was performed as described in Materials and Methods.

[1] = target: T2, FLAG-SIRT1 binding to lamin A (Homo sapiens, UniProt Q96EB6); assay: Co-immunoprecipitation of FLAG-SIRT1 and lamin A in HEK293 cells; assay type: cell-based; conditions: dose-dependent per FIG. 3D legend
T2 construct: expressed in transfected cells; host or cells: HEK293
T2 sequence (Q96EB6 1-747): T1 sequence (Q96EB6 1-747)
T2 sequence (P02545 1-646 partner limits assumed): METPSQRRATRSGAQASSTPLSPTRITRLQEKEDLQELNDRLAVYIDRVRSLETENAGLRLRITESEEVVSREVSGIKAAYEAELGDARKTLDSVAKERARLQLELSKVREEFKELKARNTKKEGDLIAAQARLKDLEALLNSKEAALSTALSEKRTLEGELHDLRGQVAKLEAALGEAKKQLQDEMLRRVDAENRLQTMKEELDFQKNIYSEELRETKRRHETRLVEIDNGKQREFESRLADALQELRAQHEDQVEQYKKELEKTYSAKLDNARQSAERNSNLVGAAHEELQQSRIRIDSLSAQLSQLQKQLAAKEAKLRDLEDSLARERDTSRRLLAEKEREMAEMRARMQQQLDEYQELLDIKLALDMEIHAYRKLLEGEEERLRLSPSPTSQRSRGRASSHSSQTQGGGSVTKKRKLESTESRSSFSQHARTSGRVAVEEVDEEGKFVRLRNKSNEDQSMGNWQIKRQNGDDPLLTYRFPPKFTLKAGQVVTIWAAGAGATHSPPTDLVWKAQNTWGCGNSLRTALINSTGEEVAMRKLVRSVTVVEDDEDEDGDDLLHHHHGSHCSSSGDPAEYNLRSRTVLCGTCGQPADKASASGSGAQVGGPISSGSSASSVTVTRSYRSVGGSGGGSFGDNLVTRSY
Method: For co-immunoprecipitation, cells were lysed into pre-chilled RIPA buffer containing 300 mM or 500 mM NaCl and protease inhibitors. Primary antibodies or appropriate control IgGs were added to the lysate and incubated for 2 h on a rocking platform at 4° C. before Agarose beads were added and incubated O/N. The beads were washed twice with RIPA buffer, resuspended into Laemmli buffer and boiled, and protein suspension was collected by centrifugation and stored for further analysis.

Zmpste24−/− mice = assay: Catalase, acetyl p53 and H3K9ac levels in BMSCs isolated from treated Zmpste24−/− mice; assay type: in vivo, mouse; conditions: resveratrol 20 μg/ml in drinking water
Method: Zmpste24^−/− mice have been described previously (Pendas et al., 2002). Mouse experimentation was performed in accordance with the guidelines of the Committee on the Use of Live Animals in Teaching and Research (CULATR) at the University of Hong Kong. New-born Zmpste24^−/− mice and wild-type controls were fed with resveratrol (20 μg/ml) or N-acetyl Cysteine (1 mg/ml) in drinking water. The survival of resveratrol-treated, NAC-treated, or vehicle-treated Zmpste24^−/− mice was recorded and their body weight was monitored weekly. The trabecular bone organization and bone mineral density were determined by micro-CT. The survival rate was analyzed by Kaplan-Meier method and statistical comparison was performed by Log-rank (Mantel-Cox) Test.
as §1
Briefly, resveratrol was supplemented at a concentration of 20 μg/ml in drinking water. Four months after treatment, BMSCs were collected for examination and comparison between resveratrol-treated and vehicle-treated Zmpste24^−/− mice.

In the case of Oc1ccc(C=Cc2cc(O)cc(O)c2)cc1 [resveratrol], the “elevated levels of p16ink4a” value (p16ink4a) is reported as “did not reduce”, the “activation of SIRT1 deacetylase activity, native full-length FLAG-p53 as substrate” value (SIRT1; in the presence of rhLamin A) is reported as “activated SIRT1 in a lamin A dose-dependent manner” and the “activation of SIRT1 deacetylase activity, native full-length FLAG-p53 as substrate” value (SIRT1; without rhLamin A) is reported as “does not directly activate”. The “binding of FLAG-SIRT1 to lamin A” value [1] was “enhanced the binding”, the “level of acetyl H3K9 in BMSCs” value (Zmpste24−/− mice) was “decreased” and the “level of acetyl p53 in BMSCs” value (Zmpste24−/− mice) was “decreased”. For the same molecule, the “level of catalase in BMSCs” value (Zmpste24−/− mice) was “enhanced”.
